Source: patent publication US20210121482A1, “WITHANOLIDES FOR THE TREATMENT OF CACHEXIA” (University of Louisville Research Foundation, Inc., priority 2019, published 2021)

Assays:
[1] = test system: A2780 ovarian cancer xenograft; conditions: mouse, in vivo
Protocol: Tumor-bearing groups received an IP injection of 1.0×10^6 low passage A2780 cells suspended in 100 μl sterile PBS.
Graphical Display and Statistical Analyses: The majority of the results were expressed as box-and-whisker plots with the box comprised of the first, second, and third quartiles, and the lower and upper whiskers corresponding to the minimum and maximum values, respectively, to display the entire range of data. A Kaplan-Meier curve was used for the survival analysis. Statistical analysis of the data was performed using one-way analysis of variance (ANOVA) followed by Tukey's Honestly Significant Difference Test (HSDT) post hoc analysis or the Mantel-Cox log-rank test to determine statistically significant differences between groups with GraphPad Prism 8.0.1 software for Mac (La Jolla, Calif., USA). A value of P<0.05 was considered statistically significant, unless otherwise specified.

[2] = test system: Pax7, Myod1, UPR, UPS and ALS markers in GA muscle; assay: qPCR of GA muscle (Pax7, Myod1, UPR, UPS, ALS markers); type: in vivo, Mus musculus
Protocol: (§1) Total RNA Extraction and qPCR: Isolation of total RNA from xenografted tumor samples was performed using an RNeasy® Mini Kit (Qiagen Catalog #74104) according to the manufacturer's instructions. Isolation of total RNA from skeletal muscle was performed using an RNeasy® Fibrous Tissue Mini Kit (Qiagen Catalog #74704) according to the manufacturer's instructions. First strand cDNA was synthesized using 1 μg of purified RNA and a commercially available kit (iScript™ cDNA synthesis, Bio-Rad Catalog #170-8891), Quantification of mRNA expression was performed similar to as previously described (Hindi and Kumar, 2016) using the SYBR Green dye method on a StepOnePlus™ system (Applied Biosystems) using gene-specific primers, as shown in Table 1.
Total RNA Extraction and qPCR: as in Example 1.

[3] = test system: ovarian cancer-induced cachexia; assay: Grip strength (Example 1); type: in vivo, mice; conditions: for normalized forelimb grip strength: 2 and 6 mg/kg
Protocol: Grip Strength Measurements: Before assessment, mice were weighed on a commercially available digital scale. Forepaw and total grip strength of mice were measured using a digital grip strength meter (Columbus Instruments, Columbus, Ohio, USA) and then normalized by total body weight. Before the beginning of the test, the mice were acclimatized for five minutes. The mouse was allowed to grasp the total paw pull-bar assembly, and in a separate experiment the forepaw pull-bar assembly. The mouse was then gently drawn with constant force in a straight line away from the device until the mouse could no longer grasp the bar. Force at time of release was recorded as the peak tension. Each mouse was tested five times with a delay of 20-40 seconds between each testing. The mean peak tension was calculated from the recordings normalized by total body weight.

satellite cells = assay: Satellite cell IHC (Pax7, MyoD, Laminin) in TA muscle; type: in vivo, mice
Protocol: Due to the role of WFA in inhibiting canonical NF-κ B signaling and the effect ovarian cancer has on this signaling pathway, WFA and the xenograft model were tested to measure induction or activation of satellite cells. The TA muscle was subjected to immunofluorescent immunohistochemical (IHC) staining for Pax7 (a marker of satellite cells), MyoD (a marker of myogenic differentiation), and Laminin (a marker of the basal lamina) (FIG. 15A). As accurate IHC detection of satellite cells can be challenging, individual color channels were compared against negative control slides to optimize visualization of satellite cells, minimize nonspecific background staining, and rule out false positives (Pax7^+/DAPI− cells) (37).
Initially, the number of satellite cells per field (normalized by the number of Laminin+ myofibers) was quantified to assess whether the model of ovarian cancer or WFA treatment affected the satellite cell population at large. […] There was a significant increase in the amount of Pax7+ cells in the tumor-bearing vehicle-treated group (0.34±0.01) compared to the tumor-free vehicle-treated and tumor-free WFA 2 mg/kg groups, although there was a significant reduction compared to the tumor-free WFA 4 mg/kg group (p<0.0001 for all comparisons). […] A small, but statistically significant decrease in the tumor-bearing WFA 4 mg/kg group was observed compared to the tumor-bearing vehicle-treated group (p=0.0004). […] Due to the systemic nature of WFA treatment, the tumor-specific uptake of WFA may have diminished the effect observed on skeletal muscle with respect to satellite cell activation in the tumor-bearing animals compared to the tumor-free animals.
After assessing changes in the gross number of satellite cells, the myogenic status was assessed to determine if the satellite cells were functionally activated. Satellite cells that are Pax7+/MyoD− are self-renewing or returning to quiescence, whereas satellite cells that are Pax7+/MyoD+ have committed to the myogenic lineage and will facilitate in muscle repair (6, 38). […] It was not feasible to enumerate the population of Pax7−/MyoD+ cells in response to the xenografted cancer or WFA treatment due to experimental limitations. However, distinct populations of Pax7+/MyoD− and Pax7+/MyoD+ cells were present (FIGS. 15C and 15D).

CAOV3 = CAOV3 cells; cited from earlier work
[4] = test system: inflammatory cytokines and NLRP3 inflammasome markers in tumor samples; assay: qPCR of xenografted tumor samples; type: in vivo, Homo sapiens
Protocol: as §1

[5] = test system: heart (cardiomyocytes, collagen deposition); assay: Histology and morphometric heart analysis; type: in vivo, mice
Source text: The hearts were isolated, flash frozen in liquid nitrogen, mounted in O.C.T. embedding medium, and then sectioned using a microtome cryostat. To assess tissue morphology, 8 μm thick transverse sections were cut from the mid-ventricle of the heart. These sections were then subjected to H&E staining or Masson's trichrome staining. Images of H&E-stained and Masson's trichrome-stained heart sections were quantified using Fiji software (National Institutes of Health software) to measure myofiber cross-sectional area (CSA) or the degree of collagen deposition, respectively. Cardiac myofiber CSA was calculated by analyzing 100-200 fibers per heart. Collagen deposition was quantified from the Masson's trichrome-stained tissue.

A2780 = assay: Effect on ovarian cancer cell line A2780; type: cell-based; conditions: A2780 cells; through reactive oxygen species production and DNA damage
[6] = tumor-bearing, 2 mg/kg, vs tumor-bearing vehicle
[7] = tumor-bearing, 4 mg/kg, vs tumor-bearing vehicle
[8] = tumor-bearing, 2 and 4 mg/kg, vs tumor-bearing vehicle
[9] = tumor-free, 4 mg/kg, vs tumor-free vehicle
[10] = tumor-free, WFA-treated groups vs vehicle-treated
[11] = 6 mg/kg, vs vehicle treated group
[12] = 2 and 6 mg/kg, vs vehicle treated group

CC1=C(CO)C(=O)O[C@@H]([C@@H](C)[C@H]2CC[C@H]3[C@@H]4C[C@H]5O[C@]56[C@@H](O)C=CC(=O)[C@]6(C)[C@H]4CC[C@]23C)C1 [WFA, (4β,5β,6β,22R)-4,27-Dihydroxy-5,6:22,26-diepoxyergosta-2,24-diene-1,26-dione]
toxicity of high dose [1]: turned out to be toxic | relative transcript levels of Ddit3 in GA muscle [2, 6]: upregulation of relative transcript levels of Ddit3 | relative transcript levels of Ern1 in GA muscle [2, 6]: no significant difference in relative transcript levels of Ern1 | transcript levels of Eif2ak3, Atf4, Pppr1r15a, Hspa5, Hsp90B1, Tnfrsf10B in GA muscle [2, 6]: reduction in Eif2ak3, Atf4, Pppr1r15a, Hspa5, Hsp90B1, and Tnfrsf10B | relative transcript levels of Ddit3 and Ern1 in GA muscle [2, 7]: significant increase in relative transcript levels of Ddit3 and Ern1 | transcript levels of Eif2ak3, Atf4, Pppr1r15a, Hspa5, Hsp90B1, Tnfrsf10B in GA muscle [2, 7]: decrease in relative transcript levels of Eif2ak3, Atf4, Pppr1r15a, Hspa5, Hsp90B1, and Tnfrsf10B | relative mRNA expression of Sqstm1, Map1lc3b, Becn1 [2, 8]: significant dose-dependent reduction in relative mRNA expression of the select ALS markers | transcription of Fbxo30, Fbxo32, Trim63, Traf6 [2, 8]: statistically significant dose-dependent transcriptional downregulation of Fbxo30, Fbxo32, Trim63, and Traf6 | relative transcript levels of Pax7 and Myod1 in GA muscle ([2]; tumor-free and tumor-bearing WFA-treated groups): significant increases in both Pax7 and Myod1 | relative transcriptional expression of Fbxo30 and Traf6 ([2]; tumor-free, 2 mg/kg, vs vehicle-treated): significant reduction in the relative transcriptional expression of Fbxo30 and Traf6 | relative gene expression of Fbxo30, Fbxo32, Trim63, Traf6 [2, 9]: significant reduction in relative gene expression of Fbxo30, Fbxo32, Trim63, and Traf6 | relative gene expression of Sqstm1, Map1lc3b, Becn1 [2, 9]: significant reduction in relative gene expression | transcript levels of Atf4 and Tnfrsf10B in GA muscle [2, 10]: no change in transcript levels of Atf4 and Tnfrsf10B | transcript levels of Eif2ak3, Ddit3, Pppr1r15a, Ern1 in GA muscle [2, 10]: transcriptional upregulation of Eif2ak3, Ddit3, Pppr1r15a, and Ern1 | transcript levels of Hspa5 and Hsp90B1 in GA muscle [2, 10]: downregulation of Hspa5 and Hsp90B1 | normalized total limb grip strength ([3]; 2 mg/kg, vs vehicle treated group, weeks 1-3): significant protective effect on total limb grip strength | normalized total limb grip strength [3, 11]: initially protective, but the grip strength eventually deteriorated to the same extent as the vehicle treated group | normalized forelimb grip strength ([3]; vs control group, significant at week 3): reduction in normalized grip strength | normalized forelimb grip strength ([3]; vs vehicle treated group, significant by week 2): attenuation of normalized forelimb grip strength | Pax7+ cells normalized by number of Laminin+ myofibers (satellite cells; tumor-bearing, WFA 2 mg/kg): 0.26±0.01 | proportion of differentiating satellite cells (Pax7+/MyoD+) (satellite cells; tumor-bearing, WFA 2 mg/kg): 48.85±1.63% | proportion of proliferating satellite cells (Pax7+/MyoD−) (satellite cells; tumor-bearing, WFA 2 mg/kg): 51.15±1.63% | Pax7+ cells normalized by number of Laminin+ myofibers (satellite cells; tumor-bearing, WFA 4 mg/kg): 0.31±0.01 | proportion of differentiating satellite cells (Pax7+/MyoD+) (satellite cells; tumor-bearing, WFA 4 mg/kg): 52.79±1.99% | proportion of proliferating satellite cells (Pax7+/MyoD−) (satellite cells; tumor-bearing, WFA 4 mg/kg): 47.21±1.99% | Pax7+ cells normalized by number of Laminin+ myofibers (satellite cells; tumor-free, WFA 2 mg/kg): 0.28±0.02 | proportion of differentiating satellite cells (Pax7+/MyoD+) (satellite cells; tumor-free, WFA 2 mg/kg): 60.73±2.28% | proportion of proliferating satellite cells (Pax7+/MyoD−) (satellite cells; tumor-free, WFA 2 mg/kg): 39.27±2.28% | Pax7+ cells normalized by number of Laminin+ myofibers (satellite cells; tumor-free, WFA 4 mg/kg): 0.42±0.01 | proportion of differentiating satellite cells (Pax7+/MyoD+) (satellite cells; tumor-free, WFA 4 mg/kg): 61.37±1.49% | proportion of proliferating satellite cells (Pax7+/MyoD−) (satellite cells; tumor-free, WFA 4 mg/kg): 38.63±1.49% | cell cycle arrest and apoptosis (CAOV3): induces cell cycle arrest and the induction of apoptosis | relative transcript levels of TNFα, IFNγ, IL-6, IL-8 in tumor ([4]; 2 mg/kg, vs vehicle treated group): significantly reduced | relative transcript levels of HO-1 in tumor ([4]; 2 mg/kg, vs vehicle treated group (p=0.06)): trended towards an increase | relative gene expression of IL-18 in tumor ([4]; 2 mg/kg, vs vehicle treated group (p=0.07)): trend towards reduction | relative mRNA expression of TNFα in tumor [4, 11]: significantly reduced | relative transcript levels of HO-1 in tumor ([4]; 6 mg/kg, vs vehicle treated group (p=0.03)): significantly increased | relative expression of IL-6 and IL-8 genes in tumor ([4]; 6 mg/kg, vs vehicle treated group (p=0.07, p=0.09)): trend towards reduction | relative gene expression of IL-18 in tumor ([4]; 6 mg/kg, vs vehicle treated group (p=0.21)): did not approach the level of statistical significance | reduction in NLRP3 mRNA levels in tumor [4, 12]: not found to be significant | relative transcript levels of CASP1 in tumor [4, 12]: dose-dependent decrease | relative transcript levels of IL-1β in tumor [4, 12]: significantly reduced in both WFA treated groups | cross-sectional area (CSA) of cardiomyocytes ([5]; tumor-bearing WFA-treated groups vs tumor-bearing vehicle): partial recovery of the CSA of cardiomyocytes | reduction in heart weight (normalized by tibial length) ([5]; tumor-bearing, both doses, vs tumor-bearing vehicle): significantly blunted | percentage of connective tissue in heart ([5]; tumor-bearing, either dose, vs tumor-bearing vehicle): significantly decreased | collagen deposition / connective tissue in heart ([5]; tumor-free WFA-treated groups vs tumor-free vehicle): comparable amount of connective tissue | heart weight ([5]; tumor-free animals): did not have any effect on heart weight in tumor-free animals | cell death (A2780): autophagic cell death
